Key:
BT474 tumor cells = test: Cell growth inhibition assay (CellTiter-Glo), BT474; assay type: cell-based, Human; conditions: Homo sapiens, BT-474, 72 h, 3 days incubation
EGFR = biological target: T1, EGFR (Homo sapiens, UniProt P00533); test: EGFR substrate phosphorylation assay (HTRF); assay type: biochemical
T1 construct: made in house; host or cells: baculovirus expression system
Summary of the method: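 Baculovirus-expressed EGFR (0.8 nM) or ErbB2 (10 nM) in enzyme mix, preincubated 1 h at 20 °C with compound (0.00027–47.6 μM final), then 90 min at 20 °C with substrate mix of 20 μM ATP, 0.8 uM biotinylated Peptide C, MnCl2, MOPS pH 7.5. Phosphotyrosine by HTRF; pIC50 reported.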

SK-MEL-3 tumor cells = test: Cell growth inhibition assay (CellTiter-Glo), SK-MEL-3; assay type: cell-based, Human; conditions: for IC50: Homo sapiens, SK-MEL3
Summary of the method: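 Cells seeded at 500/well (HN5 and HT-29 in high-glucose DMEM/10% FBS; A375P F11s in RPMI/10% FBS with pyruvate; SK-MEL-3 in McCoy's 5A/15% FBS), then exposed next day to 1:3 serial compound dilutions (0.2% DMSO) for 3 days at 37° C. CellTiter-Glo luminescence measured ATP; IC50 derived by 4-parameter fit.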

Colo205 tumor cells = test: Cell growth inhibition assay (CellTiter-Glo), Colo205; assay type: cell-based, Human; conditions: Homo sapiens, COLO 205, 72 h; 3 days incubation
Summary of the method: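 Readout was CellTiter-Glo luminescence (total ATP, surrogate for cell number) after 3-day exposure at 37° C, 5% CO2 to 1:3 serial compound dilutions in 0.2% final DMSO. Seeding was 500 cells/well; IC50 derived by 4-parameter fit relative to vehicle-treated wells.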

T1 sequence (P00533 25-1210): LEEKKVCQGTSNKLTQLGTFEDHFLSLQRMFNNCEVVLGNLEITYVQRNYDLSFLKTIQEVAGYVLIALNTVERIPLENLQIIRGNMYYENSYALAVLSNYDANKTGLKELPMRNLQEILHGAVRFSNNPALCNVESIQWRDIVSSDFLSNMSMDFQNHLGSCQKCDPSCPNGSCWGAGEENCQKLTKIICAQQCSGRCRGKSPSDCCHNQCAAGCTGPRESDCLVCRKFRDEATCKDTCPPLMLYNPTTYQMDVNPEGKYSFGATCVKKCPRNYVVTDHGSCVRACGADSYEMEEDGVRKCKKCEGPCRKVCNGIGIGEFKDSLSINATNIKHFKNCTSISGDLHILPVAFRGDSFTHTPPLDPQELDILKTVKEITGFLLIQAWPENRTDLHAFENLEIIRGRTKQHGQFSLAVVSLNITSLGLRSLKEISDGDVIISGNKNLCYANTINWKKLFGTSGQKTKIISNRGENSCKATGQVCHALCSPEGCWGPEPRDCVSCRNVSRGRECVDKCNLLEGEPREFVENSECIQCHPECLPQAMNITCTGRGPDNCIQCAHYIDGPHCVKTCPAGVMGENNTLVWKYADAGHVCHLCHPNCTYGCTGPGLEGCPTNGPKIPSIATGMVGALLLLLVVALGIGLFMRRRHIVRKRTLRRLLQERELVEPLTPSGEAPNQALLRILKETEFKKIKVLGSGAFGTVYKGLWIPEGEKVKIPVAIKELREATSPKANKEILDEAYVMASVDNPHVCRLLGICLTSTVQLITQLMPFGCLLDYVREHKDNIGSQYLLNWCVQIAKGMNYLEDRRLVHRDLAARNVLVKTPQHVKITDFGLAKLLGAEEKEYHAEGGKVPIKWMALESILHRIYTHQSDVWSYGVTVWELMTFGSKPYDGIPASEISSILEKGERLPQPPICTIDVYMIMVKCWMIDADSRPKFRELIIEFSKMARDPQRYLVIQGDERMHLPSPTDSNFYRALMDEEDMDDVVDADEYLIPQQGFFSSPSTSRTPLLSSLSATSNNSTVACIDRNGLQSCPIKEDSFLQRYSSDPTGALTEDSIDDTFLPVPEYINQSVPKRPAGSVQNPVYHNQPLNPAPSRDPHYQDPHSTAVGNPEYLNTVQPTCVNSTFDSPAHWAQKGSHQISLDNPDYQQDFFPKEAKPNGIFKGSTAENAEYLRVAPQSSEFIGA

IC50 (BT474 tumor cells)	IC50 (EGFR)	IC50 (SK-MEL-3 tumor cells)	IC50 (Colo205 tumor cells)	Structure (SMILES)	Activity in SK-MEL-3 Tumor Cells (SK-MEL-3 tumor cells)
> 1 µM	< 0.1 µM	0.1 to 1 µM	0.1 to 1 µM	CCOc1ccc(Nc2nccc(-c3sc(C(C)C)nc3-c3ccc(F)c(NS(=O)(=O)c4c(F)cccc4F)c3)n2)cc1N1CCN(CCF)CC1 [Example 98]	
> 1 µM	> 1 µM	0.1 to 1 µM	< 0.1 µM	CC(C)(C)c1nc(-c2ccc(F)c(NS(=O)(=O)c3c(F)cccc3F)c2)c(-c2ccnc(Nc3ccc(N4CCN(CCF)CC4)c(F)c3)n2)s1 [Example 99]	
> 1 µM	> 1 µM	< 0.1 µM	< 0.1 µM	CC(C)c1nc(-c2ccnc(NS(=O)(=O)c3c(F)cccc3F)c2)c(-c2ccnc(Nc3ccc(N4CCN(CCF)CC4)c(F)c3)n2)s1 [Example 100]	
> 1 µM	> 1 µM	0.1 to 1 µM	0.1 to 1 µM	CC(C)c1nc(-c2cc(F)c(F)c(NS(=O)(=O)c3cccc(F)c3)c2)c(-c2ccnc(Nc3ccc(N4CCN(CCF)CC4)c(F)c3)n2)s1 [Example 101]	
> 1 µM	> 1 µM	0.1 to 1 µM	0.1 to 1 µM	CC(C)c1nc(-c2ccc(F)c(NS(=O)(=O)c3c(F)cccc3F)c2)c(-c2ccnc(Nc3ccncc3)n2)s1 [Example 102]	
> 1 µM	0.1 to 1 µM	< 0.1 µM	0.1 to 1 µM	CN1CCC(c2nc(-c3ccc(F)c(NS(=O)(=O)c4c(F)cccc4F)c3)c(-c3ccnc(Nc4ccc(N5CCOCC5)nc4)n3)s2)CC1 [Example 106]	
> 1 µM	0.1 to 1 µM	0.1 to 1 µM	0.1 to 1 µM	CC(C)c1nc(-c2ccc(F)c(NS(=O)(=O)c3ccccc3C#N)c2)c(-c2ccnc(Nc3ccc(N4CCOCC4)nc3)n2)s1 [Example 107]	
0.1 to 1 µM	< 0.1 µM	< 0.1 µM	< 0.1 µM	CCOc1ccc(Nc2nccc(-c3sc(N4CCCC4)nc3-c3cccc(NS(=O)(=O)c4c(F)cccc4F)c3)n2)cc1N1CCN(CCS(C)(=O)=O)CC1 [Example 109]	
> 1 µM	0.1 to 1 µM	0.1 to 1 µM	0.1 to 1 µM	CN(C)c1nc(-c2ccc(F)c(NS(=O)(=O)c3c(F)cccc3F)c2)c(-c2ccnc(Nc3ccc(N4CCN(S(C)(=O)=O)CC4)nc3)n2)s1 [Example 112]	
0.1 to 1 µM	0.1 to 1 µM	0.1 to 1 µM	0.1 to 1 µM	CC(C)c1nc(-c2ccc(F)c(NS(=O)(=O)c3c(F)cccc3F)c2)c(-c2ccnc(Nc3cccc(CCS(N)(=O)=O)c3)n2)s1 [Example 113]	
> 1 µM	> 1 µM		0.1 to 1 µM	O=S(=O)(Nc1cc(-c2nc(N3CCCC3)oc2-c2ccnc(Nc3ccc(N4CCN(CCF)CC4)c(F)c3)n2)ccc1F)c1c(F)cccc1F [Example 114]	+ (activity of >1 μM in SK-MEL-3 tumor cells)
> 1 µM	0.1 to 1 µM	0.1 to 1 µM	< 0.1 µM	Cc1cc(Nc2nccc(-c3sc(C(C)C)nc3-c3ccc(F)c(NS(=O)(=O)c4c(F)cccc4F)c3)n2)ccn1 [Example 116]	
> 1 µM	0.1 to 1 µM	0.1 to 1 µM	< 0.1 µM	CC(C)c1nc(-c2ccc(F)c(NS(=O)(=O)c3c(F)cccc3F)c2)c(-c2ccnc(Nc3ccnc(N4CCOCC4)c3)n2)s1 [Example 117]	
> 1 µM	> 1 µM	< 0.1 µM	< 0.1 µM	COc1cc(N2CCN(CCS(C)(=O)=O)CC2)c(C)cc1Nc1nccc(-c2sc(C(C)(C)C)nc2-c2cccc(NS(=O)(=O)c3c(F)cccc3F)c2)n1 [Example 120]	
> 1 µM	0.1 to 1 µM	0.1 to 1 µM	< 0.1 µM	O=S(=O)(Nc1cc(-c2nc(N3CCOCC3)sc2-c2ccnc(Nc3ccc(N4CCOCC4)nc3)n2)ccc1F)c1c(F)cccc1F [Example 121]	
> 1 µM	0.1 to 1 µM	< 0.1 µM	< 0.1 µM	O=S(=O)(Nc1cccc(-c2nc(N3CCOCC3)sc2-c2ccnc(Nc3ccc(N4CCOCC4)nc3)n2)c1F)c1c(F)cccc1F [Example 122]	
> 1 µM	> 1 µM	< 0.1 µM	< 0.1 µM	CC(C)c1nc(-c2cccc(NS(=O)(=O)c3c(F)cccc3F)c2F)c(-c2ccnc(Nc3ccc(N4CCOCC4)nc3)n2)s1 [Example 123]	

IC50 (BT474 tumor cells)	IC50 (EGFR)	IC50 (SK-MEL-3 tumor cells)	IC50 (Colo205 tumor cells)	Structure (SMILES)	Activity in SK-MEL-3 Tumor Cells (SK-MEL-3 tumor cells)
> 1 µM	> 1 µM		0.1 to 1 µM	Cc1cc(N2CCOCC2)ncc1Nc1nccc(-c2sc(N3CCCC3)nc2-c2cccc(NS(=O)(=O)c3c(F)cccc3F)c2)n1 [Example 124]	+ (activity of >1 μM in SK-MEL-3 tumor cells)
> 1 µM	0.1 to 1 µM	0.1 to 1 µM	< 0.1 µM	CN1CCN(c2nc(-c3ccc(F)c(NS(=O)(=O)c4c(F)cccc4F)c3)c(-c3ccnc(Nc4ccc(N5CCOCC5)nc4)n3)s2)CC1 [Example 126]	
> 1 µM	0.1 to 1 µM		0.1 to 1 µM	O=S(=O)(Nc1cc(-c2nc(N3CCOCC3)sc2-c2ccnc(Nc3ccc4c(c3)OCCO4)n2)ccc1F)c1c(F)cccc1F [Example 127]	+ (activity of >1 μM in SK-MEL-3 tumor cells)
0.1 to 1 µM	< 0.1 µM	< 0.1 µM	< 0.1 µM	COc1cc(N2CCN(CCS(C)(=O)=O)CC2)c(C)cc1Nc1nccc(-c2sc(N3CCOCC3)nc2-c2cccc(NS(=O)(=O)c3c(F)cccc3F)c2)n1 [Example 128]	
> 1 µM	> 1 µM	< 0.1 µM	< 0.1 µM	CS(=O)(=O)c1cccc(Nc2nccc(-c3sc(N4CCOCC4)nc3-c3cccc(NS(=O)(=O)c4c(F)cccc4F)c3F)n2)c1 [Example 130]	
> 1 µM	> 1 µM	< 0.1 µM	< 0.1 µM	Cc1cc(N2CCN(CCS(C)(=O)=O)CC2)ncc1Nc1nccc(-c2sc(C(C)C)nc2-c2cccc(NS(=O)(=O)c3c(F)cccc3F)c2)n1 [Example 131]	
> 1 µM	> 1 µM	< 0.1 µM	< 0.1 µM	Cc1nc(-c2cccc(NS(=O)(=O)c3c(F)cccc3F)c2)c(-c2ccnc(Nc3ccc(N4CCOCC4)nc3)n2)s1 [Example 133]	
> 1 µM	> 1 µM	< 0.1 µM	< 0.1 µM	CS(=O)(=O)c1cccc(Nc2nccc(-c3sc(N4CCOCC4)nc3-c3cccc(NS(=O)(=O)c4c(F)cccc4F)c3Cl)n2)c1 [Example 145]	
> 1 µM	> 1 µM	< 0.1 µM	< 0.1 µM	O=S(=O)(Nc1cccc(-c2nc(N3CCOCC3)sc2-c2ccnc(Nc3ccc(N4CCOCC4)nc3)n2)c1Cl)c1c(F)cccc1F [Example 146]	
0.1 to 1 µM	0.1 to 1 µM	< 0.1 µM	< 0.1 µM	CCNc1nc(-c2cccc(NS(=O)(=O)c3c(F)cccc3F)c2)c(-c2ccnc(Nc3ccc(N4CCOCC4)nc3)n2)s1 [Example 152]	
> 1 µM	0.1 to 1 µM	< 0.1 µM	< 0.1 µM	O=S1(=O)Cc2ccc(Nc3nccc(-c4sc(N5CCOCC5)nc4-c4cccc(NS(=O)(=O)c5c(F)cccc5F)c4F)n3)cc2C1 [Example 155]	
> 1 µM	> 1 µM	< 0.1 µM	< 0.1 µM	COc1ccc(S(C)(=O)=O)cc1Nc1nccc(-c2sc(N3CCOCC3)nc2-c2cccc(NS(=O)(=O)c3c(F)cccc3F)c2F)n1 [Example 157]	
> 1 µM	> 1 µM	< 0.1 µM	< 0.1 µM	Cc1cc(Nc2nccc(-c3sc(C(C)(C)C)nc3-c3cccc(NS(=O)(=O)c4c(F)cccc4F)c3F)n2)ccn1 [Example 159]	
> 1 µM	0.1 to 1 µM	< 0.1 µM	< 0.1 µM	O=S(=O)(Nc1cccc(-c2ncsc2-c2ccnc(Nc3ccc(N4CCOCC4)nc3)n2)c1)c1c(F)cccc1F [Example 162]	
> 1 µM	0.1 to 1 µM	0.1 to 1 µM	0.1 to 1 µM	CCNc1nc(-c2ccc(F)c(NS(=O)(=O)c3c(F)cccc3F)c2)c(-c2ccnc(Nc3ccc(N4CCOCC4)nc3)n2)s1 [Example 166]	
> 1 µM	0.1 to 1 µM	< 0.1 µM	< 0.1 µM	CS(=O)(=O)CCN1CCN(c2ccc(Nc3nccc(-c4oc(N5CCCC5)nc4-c4cccc(NS(=O)(=O)c5c(F)cccc5F)c4F)n3)cc2F)CC1 [Example 167]	

Structure (SMILES)	IC50 (BT474 tumor cells)	IC50 (EGFR)	IC50 (SK-MEL-3 tumor cells)	IC50 (Colo205 tumor cells)	Activity in SK-MEL-3 Tumor Cells (SK-MEL-3 tumor cells)
O=S(=O)(Nc1cccc(-c2nc(N3CCCCC3)sc2-c2ccnc(Nc3ccc(N4CCOCC4)nc3)n2)c1)c1c(F)cccc1F [Example 151]	> 1 µM	> 1 µM	< 0.1 µM	< 0.1 µM	

— patent US20110319392A1, “Thiazole Sulfonamide And Oxazole Sulfonamide Kinase Inhibitors” (priority 2009, published 2011)
